Data published in US20090118286A1, “Heterobicyclic Acrylamides” (Bayer Cropscience AG, priority 2005, published 2009).

Experiment: log P determination by HPLC (EEC Directive 79/831 Annex V.A8, gradient method)
Assay type: physicochemical
Details: not given

Row | Physical data (logP) | Physical data: logP | Physical data: log P | Compound
1 | 3.81 | – | – | O=C(/C=C/c1c(-c2ccc(Cl)cc2)nc2sc(C(F)(F)F)nn12)NC1CCC1 [Example 0012]
2 | – | 3.51 | – | Cc1cn2c(/C=C/C(=O)NCC(F)(F)C(F)(F)C(F)(F)F)c(-c3ccccc3Cl)nc2s1 [Example 0881]
3 | – | 2.64 | – | Cc1cn2c(/C=C/C(=O)NCC(C)C)c(-c3ccccc3Cl)nc2s1 [Example 0860]
4 | – | 3.22 | – | Cc1csc2nc(-c3ccccc3Cl)c(/C=C/C(=O)NCC(F)(F)C(F)(F)C(F)(F)F)n12 [Example 0903]
5 | – | – | 3.68 | CN(C)C(=O)/C=C/c1c(-c2cccc(C(F)(F)F)c2)nc2sc(C(F)(F)F)nn12 [Example 0429]
6 | 4.27 | – | – | COCC(C)NC(=O)/C=C/c1c(-c2ccc(Cl)cc2)nc2sc(C(F)(F)F)nn12 (centres unmarked) [Example 0018]
7 | – | 2.64 | – | Cc1cn2c(/C=C/C(=O)NCC(F)(F)F)c(-c3ccccc3Cl)nc2s1 [Example 0866]
8 | – | 3.66 | – | Cc1csc2nc(-c3ccccc3Cl)c(/C=C/C(=O)Nc3ccc(OC(F)(F)F)cc3)n12 [Example 0900]
9 | – | – | 4.27 | O=C(/C=C/c1c(-c2cccc(C(F)(F)F)c2)nc2sc(C(F)(F)F)nn12)NC1CCCC1 [Example 0377]
10 | 4.63 | – | – | CC(C)CN(C)C(=O)/C=C/c1c(-c2cccc(Cl)c2)nc2sc(C(F)(F)F)nn12 [Example 0138]
11 | – | – | 3.81 | CCC(CC)NC(=O)/C=C/c1c(-c2ccc(F)cc2)nc2sc(C(F)(F)F)nn12 [Example 0357]
12 | 3.63 | – | – | O=C(/C=C/c1c(-c2cccc(Cl)c2)nc2sc(C(F)(F)F)nn12)NOCC1CC1 [Example 0130]
13 | 5.31 | – | – | CCC(NC(=O)/C=C/c1c(-c2ccc(Cl)cc2)nc2sc(C(F)(F)F)nn12)C1CCCCC1 (centres unmarked) [Example 0045]
14 | – | 2.35 | – | Cc1cn2c(/C=C/C(=O)NC(C)C)c(-c3ccccc3Cl)nc2s1 [Example 0868]
15 | – | – | 4.46 | CC(NC(=O)/C=C/c1c(-c2cccc(C(F)(F)F)c2)nc2sc(C(F)(F)F)nn12)c1ccccc1 (centres unmarked) [Example 0402]
16 | – | 2.4 | – | COCc1nn2c(/C=C/C(=O)NC(C)C)c(-c3ccccc3Cl)nc2s1 [Example 0824]
17 | – | 4.11 | – | CC(C)(NC(=O)/C=C/c1c(-c2ccc(F)cc2Cl)nc2sc(C(F)(F)F)nn12)C(F)(F)F [Example 0915]
18 | – | 2.93 | – | COCc1nn2c(/C=C/C(=O)NC(C)C(F)(F)F)c(-c3ccccc3Cl)nc2s1 (centres unmarked) [Example 0817]
19 | – | 2.7 | – | COCC(C)NC(=O)/C=C/c1c(-c2ccc(OC)c(OC)c2)nc2sc(C(F)(F)F)nn12 (centres unmarked) [Example 0663]
20 | – | 3.61 | – | CC(C)(C)c1nn2c(/C=C/C(=O)NCC(F)(F)F)c(-c3ccccc3Cl)nc2s1 [Example 0800]
21 | – | 4.28 | – | O=C(/C=C/c1c(-c2ccc(F)cc2Cl)nc2sc(C(F)(F)F)nn12)N1CCCC(C(F)(F)F)C1 (centres unmarked) [Example 0648]
22 | – | 3.48 | – | CC(C)C(NC(=O)C=Cc1c(-c2cccnc2Cl)nc2sc(C(F)(F)F)nn12)C(F)(F)F (centres unmarked) [Example 0949]
23 | – | 3.26 | – | COc1ccc(-c2nc3sc(C(F)(F)F)nn3c2/C=C/C(=O)NC2CCCC2)cc1OC [Example 0658]
24 | – | 3 | – | Cc1cn2c(/C=C/C(=O)NCCC(C)C)c(-c3ccccc3Cl)nc2s1 [Example 0864]
25 | – | 3.41 | – | COc1ccc(-c2nc3sc(C(F)(F)F)nn3c2/C=C/C(=O)NC(C)C(C)C)cc1OC (centres unmarked) [Example 0668]
26 | – | 3.17 | – | Cc1cn2c(/C=C/C(=O)NC(C)C(C)(C)C)c(-c3ccccc3Cl)nc2s1 (centres unmarked) [Example 0870]
27 | – | – | 3.07 | COCC(C)NC(=O)/C=C/c1c(-c2ccccc2C)nc2sc(C(F)(F)F)nn12 (racemic) [Example 0240]
28 | – | 2.76 | – | CC(NC(=O)/C=C/c1c(-c2cccnc2Cl)nc2sc(C(F)(F)F)nn12)C(F)(F)F (racemic) [Example 0948]
29 | – | 3.79 | – | CC(C)NC(=O)/C=C/c1c(-c2ccc(F)cc2Cl)nc2sc(C(F)(F)C(F)(F)F)nn12 [Example 0972]

The next lines start with the compound.

Row | Compound | Physical data (logP) | Physical data: logP | Physical data: log P
30 | CCCC(C)NC(=O)/C=C/c1c(-c2cccc(C(F)(F)F)c2)nc2sc(C(F)(F)F)nn12 (centres unmarked) [Example 0381] | – | – | 4.56
31 | Cc1cn2c(/C=C/C(=O)NC3CCCCC3)c(-c3ccccc3Cl)nc2s1 [Example 0876] | – | 3.05 | –
32 | C=CCN(C)C(=O)/C=C/c1c(-c2cccc(Cl)c2)nc2sc(C(F)(F)F)nn12 [Example 0137] | 4.0 | – | –
33 | CC(C)NC(=O)/C=C/c1c(-c2ccc(Cl)cc2)nc2sc(C(F)(F)F)nn12 [Example 0007] | 3.61 | – | –
34 | COc1ccc(-c2nc3sc(C(F)(F)F)nn3c2/C=C/C(=O)O)cc1OC [VA-10] | 2.43 | – | –
35 | CC(COc1ccccc1)NC(=O)/C=C/c1c(-c2ccccc2Cl)nc2sc(C(F)(F)F)nn12 (racemic) [Example 0194] | 4.03 | – | –
36 | O=C(/C=C/c1c(-c2cccc(Cl)c2)nc2sc(C(F)(F)F)nn12)N1CCCCC1 [Example 0141] | 4.37 | – | –
37 | O=Cc1c(-c2ccc(F)cc2Cl)nc2sc(C(F)(F)C(F)(F)F)nn12 [IVA112] | 3.63 | – | –
38 | COCC(C)NC(=O)/C=C/c1c(-c2ccccc2Cl)nc2sc(C(F)(F)F)nn12 (racemic) [Example 0169] | 2.99 | – | –
39 | Cc1ccccc1-c1nc2sc(C(F)(F)F)nn2c1/C=C/C(=O)NOC(C)c1ccccc1 (centres unmarked) [Example 0284] | – | – | 3.81
40 | Cc1ccccc1-c1nc2sc(C(F)(F)F)nn2c1/C=C/C(=O)N1CCCCC1 [Example 0293] | – | – | 3.85
41 | Cc1ccccc1-c1nc2sc(C(F)(F)F)nn2c1/C=C/C(=O)NC(C)(C)C [Example 0231] | – | – | 3.85
42 | CC(C)(C)CCNC(=O)/C=C/c1c(-c2ccccc2Cl)nc2sc(C(C)(C)C)nn12 [Example 0805] | – | 4.4 | –
43 | O=Cc1c(-c2cccnc2Cl)nc2sc(C(F)(F)F)nn12 [IVA116] | 2.14 | – | –
44 | CC(C)C(NC(=O)C=Cc1c(-c2ccccc2Cl)nc2sc(C(F)(F)C(F)(F)F)nn12)C(F)(F)F (centres unmarked) [Example 0962] | – | 4.62 | –
45 | CCC(CC)NC(=O)/C=C/c1c(-c2ccc(OC)c(OC)c2)nc2sc(C(F)(F)F)nn12 [Example 0710] | – | 3.37 | –
46 | O=C(/C=C/c1c(-c2ccccc2Cl)nc2sc(-c3ccc(C(F)(F)F)cc3)nn12)NC1CCCC1 [Example 0853] | – | 4.44 | –
47 | O=C(/C=C/c1c(-c2ccc(Cl)cc2)nc2sc(C(F)(F)F)nn12)NOCC1CC1 [Example 0060] | 3.59 | – | –
48 | CC(ONC(=O)/C=C/c1c(-c2cccc(Cl)c2)nc2sc(C(F)(F)F)nn12)c1ccccc1 (centres unmarked) [Example 0132] | 4.23 | – | –
49 | COc1ccc(-c2nc3sc(C(F)(F)F)nn3c2/C=C/C(=O)NC2CCCCC2)cc1OC [Example 0659] | – | 3.55 | –
50 | Cc1csc2nc(-c3ccccc3Cl)c(/C=C/C(=O)NC3CCC(C(F)(F)F)CC3)n12 (centres unmarked) [Example 0887] | – | 3.04 | –

Row | Compound | Physical data (logP) | Physical data: logP | Physical data: log P
51 | CC(C)NC(=O)/C=C/c1c(-c2ccccc2Cl)nc2scc(-c3ccccc3)n12 [Example 0904] | – | 2.77 | –
52 | CC(C)C(NC(=O)C=Cc1c(-c2nccs2)nc2sc(C(F)(F)C(F)(F)F)nn12)C(F)(F)F (centres unmarked) [Example 0988] | – | 4.35 | –
53 | O=C(/C=C/c1c(-c2cccc(C(F)(F)F)c2)nc2sc(C(F)(F)F)nn12)NC1CCCCC1 [Example 0378] | – | – | 4.61
54 | O=C(O)/C=C/c1c(-c2ccc(F)cc2Cl)nc2sc(C(F)(F)C(F)F)nn12 [VA134] | 3.01 | – | –
55 | CCC(NC(=O)C=Cc1c(-c2ccc(F)cc2)nc2sc(C(F)(F)F)nn12)c1ccccc1 (centres unmarked) [Example 0332] | – | – | 4.18
56 | Cc1ccccc1-c1nc2sc(C(F)(F)F)nn2c1/C=C/C(=O)NC(C)c1ccccc1 (centres unmarked) [Example 0260] | – | – | 3.94
57 | CCC(NC(=O)C=Cc1c(-c2ccccc2Cl)nc2sc(C(F)(F)F)nn12)c1ccccc1 (centres unmarked) [Example 0190] | 4.08 | – | –
58 | CC(NC(=O)/C=C/c1c(-c2ccccc2Cl)nc2sc(C(F)(F)C(F)(F)F)nn12)C(F)(F)F (racemic) [Example 0961] | – | 4.07 | –
59 | CC(C)C(C)NC(=O)/C=C/c1c(-c2ccc(Cl)cc2)nc2sc(C(F)(F)F)nn12 (centres unmarked) [Example 0023] | 4.25 | – | –
60 | CC(COc1ccccc1)NC(=O)/C=C/c1c(-c2cccc(C(F)(F)F)c2)nc2sc(C(F)(F)F)nn12 (centres unmarked) [Example 0407] | – | – | 4.67
61 | CC(C)NC(=O)/C=C/c1c(-c2ccc(Cl)nc2)nc2sc(C(F)(F)F)nn12 [Example 0933] | – | 2.85 | –
62 | C=CCN(C)C(=O)/C=C/c1c(-c2ccc(Cl)cc2Cl)nc2sc(C(F)(F)F)nn12 [Example 0570] | – | – | 4.0
63 | COc1ccc(-c2nc3sc(C(F)(F)F)nn3c2/C=C/C(=O)NC(C)c2ccccc2)cc1OC (centres unmarked) [Example 0683] | – | 3.5 | –
64 | Cc1csc2nc(-c3ccccc3Cl)c(/C=C/C(=O)NC3CCCC3)n12 [Example 0897] | – | 2.46 | –
65 | COc1ccc(-c2nc3sc(C(F)(F)F)nn3c2/C=C/C(=O)N2CCOCC2)cc1OC [Example 0718] | – | 2.58 | –
66 | O=C(/C=C/c1c(-c2ccccc2Cl)nc2sc(C(F)(F)F)nn12)N1CCCCC1 [Example 0222] | – | – | 3.76
67 | CCCC(C)NC(=O)/C=C/c1c(-c2cccc(Cl)c2)nc2sc(C(F)(F)F)nn12 (centres unmarked) [Example 0088] | 4.37 | – | –
68 | O=C(O)/C=C/c1c(-c2ccccc2Cl)nc2sc(C(F)(F)Cl)nn12 [VA-24] | 2.93 | – | –
69 | Cc1csc2nc(-c3ccccc3Cl)c(/C=C/C(=O)NCC(C)(C)C)n12 [Example 0885] | – | 2.67 | –
70 | Cc1csc2nc(-c3ccccc3Cl)c(/C=C/C(=O)NCCC(C)C)n12 [Example 0886] | – | 2.75 | –

Same assay, conditions: HPLC gradient method, acetonitrile/0.1% strength aqueous phosphoric acid or formic acid; preparation examples; read-out: log P

Row | chromatographic logP | Compound
71 | 2.48 | C[C@@H](C[S+](C)[O-])NC(=O)/C=C/c1c(-c2ccc(Cl)cc2Cl)nc2sc(C(F)(F)F)nn12 (stereo partly drawn) [Example 0002, (2E)-3-[6-(2,4-Dichlorophenyl)-2-(trifluoromethyl)imidazo[2,1-b][1,3,4]thiadiazol-5-yl]-N-[(1S)-1-methyl-2-(methylsulphinyl)ethyl]acrylamide]
